According to US20070093455A1, “10-substituted tetracyclines and methods of use thereof” (priority 2005, published 2007):
pIC50: −log10 of the molar value. Converted amounts (≈) assume the structure as drawn.

Tested on: S. aureus RN450
Assay: In vitro MIC assay, S. aureus RN450
Assay type: cell-based
Conditions: Staphylococcus aureus, broth microdilution, 35° C., 18-24 hours

Row | SMILES | MIC [µg/mL]
1 | CN(C)[C@H]1C(O)=C(C(N)=O)C(=O)[C@@]2(O)C(O)=C3C(=O)c4cccc(-c5ncccn5)c4CC3CC12 (some centres unmarked) [L] | 0 to 21
2 | CC1CCN(c2cccc3c2C(=O)C2=C(O)[C@]4(O)C(=O)C(C(N)=O)=C(O)[C@@H](N(C)C)C4CC2C3)CC1 (some centres unmarked) [M] | 44 to 64 (≈ 88.8 to 129 µM)

Tested on: P. acnes (PBS 1073)
Assay: In vitro MIC assay, P. acnes (PBS 1073)
Assay type: cell-based
Conditions: Cutibacterium acnes; Brucella agar with laked sheep blood, 48 hours anaerobic, 35° C.

Row | SMILES | MIC [µg/mL]
3 | CN(C)[C@H]1C(O)=C(C(N)=O)C(=O)[C@@]2(O)C(O)=C3C(=O)c4cccc(-c5ncccn5)c4CC3CC12 (some centres unmarked) [L] | 28 to 32 (≈ 58.8 to 67.2 µM)

Tested on: S. aureus RN4250
Assay: In vitro MIC assay, S. aureus RN4250
Assay type: cell-based
Conditions: Staphylococcus aureus, broth microdilution, 35° C., 18-24 hours

Row | SMILES | MIC [µg/mL]
4 | CN(C)[C@H]1C(O)=C(C(N)=O)C(=O)[C@@]2(O)C(O)=C3C(=O)c4cccc(-c5ncccn5)c4CC3CC12 (some centres unmarked) [L] | 0 to 21
5 | CC1CCN(c2cccc3c2C(=O)C2=C(O)[C@]4(O)C(=O)C(C(N)=O)=C(O)[C@@H](N(C)C)C4CC2C3)CC1 (some centres unmarked) [M] | 44 to 64 (≈ 88.8 to 129 µM)

Tested on: E. coli translation
Assay: In vitro translation assay for inhibition of bacterial protein synthesis (E. coli S30 Extract System, luciferase)
Assay type: biochemical
Conditions: 37° C., 1 hour, luciferase luminescence
Description: As a further measure of antibacterial activity, an E. coli S30 Extract System was used to quantitate inhibition of E. coli translation by tetracycline derivatives. This system contained all required components for translation, including a nucleic acid template which, when translated, produces functional luciferase. The reactions were set up with E. coli S30 extract, amino acids, DNA template and selected tetracycline compounds at concentrations of 100, 50, 25, 10, 5, and 1 μg/ml. The reactions were incubated at 37° C. for 1 hour and analyzed by adding the reaction mix to Steady-Glo Luciferase Assay substrate (Promega, Madison Wis.). Luminescence was measured with the Wallac Victor5 plate reader and inhibition is calculated by comparing luciferase activity in experimental reactions versus controls.

Row | SMILES | IC20 [µM] | pIC50
6 | CC1CCN(c2cccc3c2C(=O)C2=C(O)[C@]4(O)C(=O)C(C(N)=O)=C(O)[C@@H](N(C)C)C4CC2C3)CC1 (some centres unmarked) [M] | < 100 | > 4.00

Tested on: P. acnes (ATCC 11827)
Assay: In vitro MIC assay, P. acnes (ATCC 11827)
Assay type: cell-based
Conditions: Cutibacterium acnes, ATCC11827; Brucella agar with laked sheep blood, 48 hours anaerobic, 35° C.

Row | SMILES | MIC [µg/mL]
7 | CN(C)[C@H]1C(O)=C(C(N)=O)C(=O)[C@@]2(O)C(O)=C3C(=O)c4cccc(-c5ncccn5)c4CC3CC12 (some centres unmarked) [L] | 0 to 8

Tested on: S. pneumoniae 157E
Assay: In vitro MIC assay, S. pneumoniae 157E
Assay type: cell-based
Conditions: Streptococcus pneumoniae, broth supplemented with lysed horse blood, 35° C., 18-24 hours

Row | SMILES | MIC [µg/mL]
8 | CN(C)[C@H]1C(O)=C(C(N)=O)C(=O)[C@@]2(O)C(O)=C3C(=O)c4cccc(-c5ncccn5)c4CC3CC12 (some centres unmarked) [L] | 0 to 21
9 | CC1CCN(c2cccc3c2C(=O)C2=C(O)[C@]4(O)C(=O)C(C(N)=O)=C(O)[C@@H](N(C)C)C4CC2C3)CC1 (some centres unmarked) [M] | 22 to 43 (≈ 44.4 to 86.8 µM)

Tested on: COS-1 or CHO cell
Assay: Mammalian cell cytotoxicity assay (Resazurin; Alamar Blue)
Assay type: cell-based
Conditions: COS-1 or CHO cells, 24 hour incubation
Description: To predict the in vivo risks associated with the compounds of the invention, a soluble, non-toxic redox dye (“Resazurin”; Alamar Blue) was used to assess a compound's effect on cellular metabolism. COS-1 or CHO cell suspensions were prepared, seeded into 96-well black-walled microtiter plates, and incubated overnight at 37° C., in 5% CO2 and approximately 95% humidity. On the next day, serial dilutions of test drug were prepared and transferred to cell plates. Following a 24 hour incubation period, the media/drug was aspirated, and 50 μL of resazurin was added. After a 2 hour incubation, fluorescence measurements were taken (excitation […], emission 590 nm) and toxic effects in treated versus control cells were compared based on the degree of fluorescence in each well.

Row | SMILES | cytotoxicity at 75 μg/mL
10 | CN(C)[C@H]1C(O)=C(C(N)=O)C(=O)[C@@]2(O)C(O)=C3C(=O)c4cccc(-c5ncccn5)c4CC3CC12 (some centres unmarked) [L] | minimal cytotoxicity
11 | CC1CCN(c2cccc3c2C(=O)C2=C(O)[C@]4(O)C(=O)C(C(N)=O)=C(O)[C@@H](N(C)C)C4CC2C3)CC1 (some centres unmarked) [M] | minimal cytotoxicity

Tested on: P. acnes (ATCC 1077)
Assay: In vitro MIC assay, P. acnes (ATCC 1077)
Assay type: cell-based
Conditions: Cutibacterium acnes, ATCC1077; Brucella agar with laked sheep blood, 48 hours anaerobic, 35° C.

Row | SMILES | MIC [µg/mL]
12 | CN(C)[C@H]1C(O)=C(C(N)=O)C(=O)[C@@]2(O)C(O)=C3C(=O)c4cccc(-c5ncccn5)c4CC3CC12 (some centres unmarked) [L] | 28 to 32 (≈ 58.8 to 67.2 µM)

Tested on: P. aeruginosa K1033
Assay: In vitro MIC assay, P. aeruginosa K1033
Assay type: cell-based
Conditions: Pseudomonas aeruginosa, broth microdilution, 35° C., 18-24 hours

Row | SMILES | MIC [µg/mL]
13 | CN(C)[C@H]1C(O)=C(C(N)=O)C(=O)[C@@]2(O)C(O)=C3C(=O)c4cccc(-c5ncccn5)c4CC3CC12 (some centres unmarked) [L] | 0 to 21
14 | CC1CCN(c2cccc3c2C(=O)C2=C(O)[C@]4(O)C(=O)C(C(N)=O)=C(O)[C@@H](N(C)C)C4CC2C3)CC1 (some centres unmarked) [M] | 0 to 21

Tested on: S. aureus MRSA5
Assay: In vitro MIC assay, S. aureus MRSA5
Assay type: cell-based
Conditions: Staphylococcus aureus, broth microdilution, 35° C., 18-24 hours

Row | SMILES | MIC [µg/mL]
15 | CN(C)[C@H]1C(O)=C(C(N)=O)C(=O)[C@@]2(O)C(O)=C3C(=O)c4cccc(-c5ncccn5)c4CC3CC12 (some centres unmarked) [L] | 0 to 21
16 | CC1CCN(c2cccc3c2C(=O)C2=C(O)[C@]4(O)C(=O)C(C(N)=O)=C(O)[C@@H](N(C)C)C4CC2C3)CC1 (some centres unmarked) [M] | 44 to 64 (≈ 88.8 to 129 µM)

Tested on: H. influenza (ATCC 49247)
Assay: In vitro MIC assay, H. influenza (ATCC 49247)
Assay type: cell-based
Conditions: read-out: MIC H. influenza (ATCC 49247)

Row | SMILES | MIC [µg/mL]
17 | CN(C)[C@H]1C(O)=C(C(N)=O)C(=O)[C@@]2(O)C(O)=C3C(=O)c4cccc(-c5ncccn5)c4CC3CC12 (some centres unmarked) [L] | 44 to 64 (≈ 92.3 to 134 µM)
18 | CC1CCN(c2cccc3c2C(=O)C2=C(O)[C@]4(O)C(=O)C(C(N)=O)=C(O)[C@@H](N(C)C)C4CC2C3)CC1 (some centres unmarked) [M] | 0 to 21

Tested on: E. coli MG 1655 DWAK
Assay: In vitro MIC assay, E. coli MG 1655 DWAK
Assay type: cell-based
Conditions: Escherichia coli, MG1655DWAK; broth microdilution, 35° C., 18-24 hours
Description: The following assay was used to determine the efficacy of tetracycline compounds against common bacteria. Serial dilutions of compounds were prepared in microdilution plates using a Tecan robotic workstation. Mueller Hinton broth cultures of gram negative and gram positive strains were grown or adjusted to match the turbidity of a 0.5 McFarland standard. 1:200 dilutions were made in appropriate broth (cation supplemented Mueller Hinton broth or Haemophilus test medium) to allow a final inoculum of 1×10^5 cfu. Lysed horse blood was used to supplement broth for testing S. pneumoniae. The plates were incubated at 35° C. in ambient air for 18-24 hours, read spectrophotometrically, and checked manually for evidence of bacterial growth. Serial dilutions of compounds were also added to Brucella agar supplemented with laked sheep blood for P. acnes tests. A standard inoculum was transferred to the plate using a stainless steel replicator. After 48 hours of anaerobic incubation at 35° C. plates were examined. The MIC was defined as the lowest concentration of the tetracycline compound that inhibits growth. Table 3 gives the MIC (μg/mL) of selected substituted tetracycline compounds against a variety of gram positive and gram negative bacteria.

Row | SMILES | MIC [µg/mL]
19 | CN(C)[C@H]1C(O)=C(C(N)=O)C(=O)[C@@]2(O)C(O)=C3C(=O)c4cccc(-c5ncccn5)c4CC3CC12 (some centres unmarked) [L] | 0 to 21
20 | CC1CCN(c2cccc3c2C(=O)C2=C(O)[C@]4(O)C(=O)C(C(N)=O)=C(O)[C@@H](N(C)C)C4CC2C3)CC1 (some centres unmarked) [M] | 0 to 21

Tested on: B. fragilis (ATCC 25285)
Assay: In vitro MIC assay, B. fragilis (ATCC 25285)
Assay type: cell-based
Conditions: Bacteroides fragilis, ATCC25285

Row | SMILES | MIC [µg/mL]
21 | CN(C)[C@H]1C(O)=C(C(N)=O)C(=O)[C@@]2(O)C(O)=C3C(=O)c4cccc(-c5ncccn5)c4CC3CC12 (some centres unmarked) [L] | 0 to 8

Tested on: E. coli (ATCC 25922)
Assay: In vitro MIC assay, E. coli (ATCC 25922)
Assay type: cell-based
Conditions: Escherichia coli, ATCC25922; broth microdilution, 35° C., 18-24 hours

Row | SMILES | MIC [µg/mL]
22 | CN(C)[C@H]1C(O)=C(C(N)=O)C(=O)[C@@]2(O)C(O)=C3C(=O)c4cccc(-c5ncccn5)c4CC3CC12 (some centres unmarked) [L] | 22 to 43 (≈ 46.2 to 90.2 µM)
23 | CC1CCN(c2cccc3c2C(=O)C2=C(O)[C@]4(O)C(=O)C(C(N)=O)=C(O)[C@@H](N(C)C)C4CC2C3)CC1 (some centres unmarked) [M] | 44 to 64 (≈ 88.8 to 129 µM)

Tested on: Mouse 3T3 fibroblast cells
Assay: Phototoxicity assay (neutral red)
Assay type: cell-based
Conditions: 3T3 cells, UV light 1.6-1.8 mW/cm^2, 30 μM
Description: Mouse 3T3 fibroblast cells were harvested and plated at a concentration of 1×10^5 cells/mL. Drug dilutions were made in HBSS and added to the plates. Duplicate plates were then incubated in the dark (for controls), or under UV light (meter reading of 1.6-1.8 mW/cm^2) for 50 minutes. Cells were then washed with HBSS, fresh medium was added, and plates were then incubated overnight. The following day, neutral red was added as an indicator of cell viability and plates were incubated for an additional 3 hours. Cells were then washed with HBSS and a solution of 50% EtOH, 10% glacial acetic acid is added. After a 20 minute incubation period, plates absorbance at 535 nm were read using a Wallac Victor 5 spectrophotometer. The phototoxicity in light-treated and control cultures was then compared.

Row | SMILES | phototoxicity at 30 μM, incubated in the UV light
24 | CC1CCN(c2cccc3c2C(=O)C2=C(O)[C@]4(O)C(=O)C(C(N)=O)=C(O)[C@@H](N(C)C)C4CC2C3)CC1 (some centres unmarked) [M] | minimally phototoxic

Same assay, conditions: 3T3 cells, incubated in the dark, 150 μM

Row | SMILES | phototoxicity at 150 μM, incubated in the dark
25 | CC1CCN(c2cccc3c2C(=O)C2=C(O)[C@]4(O)C(=O)C(C(N)=O)=C(O)[C@@H](N(C)C)C4CC2C3)CC1 (some centres unmarked) [M] | not to be appreciably phototoxic

Tested on: P. acnes (ATCC 6919)
Assay: In vitro MIC assay, P. acnes (ATCC 6919)
Assay type: cell-based
Conditions: Cutibacterium acnes, ATCC6919; Brucella agar with laked sheep blood, 48 hours anaerobic, 35° C.

Row | SMILES | MIC [µg/mL]
26 | CN(C)[C@H]1C(O)=C(C(N)=O)C(=O)[C@@]2(O)C(O)=C3C(=O)c4cccc(-c5ncccn5)c4CC3CC12 (some centres unmarked) [L] | 0 to 8

Tested on: P. acnes (PBS 1074)
Assay: In vitro MIC assay, P. acnes (PBS 1074)
Assay type: cell-based
Conditions: Cutibacterium acnes; Brucella agar with laked sheep blood, 48 hours anaerobic, 35° C.

Row | SMILES | MIC [µg/mL]
27 | CN(C)[C@H]1C(O)=C(C(N)=O)C(=O)[C@@]2(O)C(O)=C3C(=O)c4cccc(-c5ncccn5)c4CC3CC12 (some centres unmarked) [L] | 28 to 32 (≈ 58.8 to 67.2 µM)

Tested on: B. theraiotaomicron (ATCC 29741)
Assay: In vitro MIC assay, B. theraiotaomicron (ATCC 29741)
Assay type: cell-based
Conditions: not given

Row | SMILES | MIC [µg/mL]
28 | CN(C)[C@H]1C(O)=C(C(N)=O)C(=O)[C@@]2(O)C(O)=C3C(=O)c4cccc(-c5ncccn5)c4CC3CC12 (some centres unmarked) [L] | 28 to 32 (≈ 58.8 to 67.2 µM)
